# According to ChEMBL document CHEMBL1909046, “DrugMatrix in vitro pharmacology data”:
# Assays:
# [1] = DRUGMATRIX: Glutamate, Kainate radioligand binding (ligand: [3H] Kainic acid); type: cell membranes, Rattus norvegicus, Wistar, Brain, Membrane; conditions: Not Active = under 50% inhibition at 10 µM
# [2] = target: T1, Leukotriene C4 synthase (Cavia porcellus, UniProt A6XA80); test: biochemical; type: tissue-based, Lung;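 further: enzyme inhibition assay of leukotriene C4 synthase, using LTA4 as the substrate; in other assays of this panel Not Active means under 50% inhibition at 10 µM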
# T1 sequence (A6XA80 whole entry): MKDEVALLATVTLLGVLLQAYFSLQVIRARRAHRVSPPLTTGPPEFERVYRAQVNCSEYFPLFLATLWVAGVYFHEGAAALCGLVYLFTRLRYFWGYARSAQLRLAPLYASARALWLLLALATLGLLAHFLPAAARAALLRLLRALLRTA
# [3] = DRUGMATRIX: Nicotinic Acetylcholine radioligand binding (ligand: [125I] Epibatidine); type: cell membranes, Membrane; conditions: imr-32; Not Active = under 50% inhibition at 10 µM
# [4] = target: T2, Nitric oxide synthase, inducible (Mus musculus, UniProt P29477); design: species or system Escherichia coli;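 further: inhibition of iNOS enzyme activity measured with L-arginine as substrate; in other assays of this panel Not Active means under 50% inhibition at 10 µM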
# T2 sequence (P29477 whole entry): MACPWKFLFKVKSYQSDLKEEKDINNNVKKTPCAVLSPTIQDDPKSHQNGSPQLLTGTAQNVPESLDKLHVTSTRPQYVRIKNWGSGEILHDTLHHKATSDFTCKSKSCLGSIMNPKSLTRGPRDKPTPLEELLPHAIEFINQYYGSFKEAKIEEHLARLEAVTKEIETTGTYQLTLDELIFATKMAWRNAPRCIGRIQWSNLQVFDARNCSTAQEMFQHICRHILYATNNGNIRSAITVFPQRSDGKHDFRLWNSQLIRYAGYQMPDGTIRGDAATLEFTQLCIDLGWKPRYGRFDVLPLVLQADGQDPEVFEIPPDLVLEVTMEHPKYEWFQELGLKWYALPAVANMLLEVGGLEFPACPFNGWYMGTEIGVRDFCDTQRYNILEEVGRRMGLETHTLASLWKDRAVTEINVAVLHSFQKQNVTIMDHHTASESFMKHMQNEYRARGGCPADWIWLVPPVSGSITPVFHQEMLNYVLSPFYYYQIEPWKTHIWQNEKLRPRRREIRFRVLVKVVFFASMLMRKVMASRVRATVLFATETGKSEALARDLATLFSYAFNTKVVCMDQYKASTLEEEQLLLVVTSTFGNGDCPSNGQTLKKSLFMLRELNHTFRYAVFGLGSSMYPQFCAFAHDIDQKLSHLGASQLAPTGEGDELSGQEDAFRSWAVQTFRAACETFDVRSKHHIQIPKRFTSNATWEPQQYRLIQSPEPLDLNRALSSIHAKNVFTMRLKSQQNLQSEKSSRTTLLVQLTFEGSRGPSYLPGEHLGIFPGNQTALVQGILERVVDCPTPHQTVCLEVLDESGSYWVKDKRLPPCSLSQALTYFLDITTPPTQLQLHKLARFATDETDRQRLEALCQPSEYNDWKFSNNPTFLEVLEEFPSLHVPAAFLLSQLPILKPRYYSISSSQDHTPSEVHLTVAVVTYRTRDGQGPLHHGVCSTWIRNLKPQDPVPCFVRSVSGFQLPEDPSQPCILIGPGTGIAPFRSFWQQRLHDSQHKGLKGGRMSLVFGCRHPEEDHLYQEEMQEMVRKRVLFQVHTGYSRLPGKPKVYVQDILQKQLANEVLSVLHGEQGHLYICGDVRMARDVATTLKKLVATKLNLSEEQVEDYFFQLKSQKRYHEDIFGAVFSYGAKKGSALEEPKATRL
# [5] = target: Protein kinase C alpha type (Homo sapiens, UniProt P17252); type: cell-based; conditions: sf9;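 further: inhibition of PKCalpha kinase activity measured in an enzyme assay with histone as the phosphorylation substrate; in other assays of this panel Not Active means under 50% inhibition at 10 µM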
# [6] = target: T3, Cytochrome P450 1A2 (Homo sapiens, UniProt P05177); conditions: bti-tn-5b1-4; further: in other assays of this panel Not Active means under 50% inhibition at 10 µM
# T3 sequence (P05177 whole entry): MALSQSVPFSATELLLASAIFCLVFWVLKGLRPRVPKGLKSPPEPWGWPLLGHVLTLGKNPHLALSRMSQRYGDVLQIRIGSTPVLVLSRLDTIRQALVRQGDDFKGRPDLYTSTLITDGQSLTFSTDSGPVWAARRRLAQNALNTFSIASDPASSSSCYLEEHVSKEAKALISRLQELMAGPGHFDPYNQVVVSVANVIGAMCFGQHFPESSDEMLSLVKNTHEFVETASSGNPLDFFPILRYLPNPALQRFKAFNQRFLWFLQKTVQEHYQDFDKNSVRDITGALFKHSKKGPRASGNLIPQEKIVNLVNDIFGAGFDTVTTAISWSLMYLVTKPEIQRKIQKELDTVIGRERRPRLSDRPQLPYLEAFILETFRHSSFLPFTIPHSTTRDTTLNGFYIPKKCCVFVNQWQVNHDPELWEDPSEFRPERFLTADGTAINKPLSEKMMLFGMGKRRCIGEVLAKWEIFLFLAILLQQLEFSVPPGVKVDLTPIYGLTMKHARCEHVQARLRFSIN
Structure (SMILES),IC50 [1],Ki [1],IC50 ([2]; read-out: IC50),IC50 [3],Ki [3],IC50 [4],IC50 [5],IC50 [6],Ki [6],IC50 [2]
COc1ccc2cc(CC(=O)O)ccc2c1,Not Active,Not Active,49.7 µM,Not Active,Not Active,Not Active,Not Active,Not Active,Not Active,
CC(C)NC[C@H](O)COc1cccc2[nH]ccc12,Not Active,Not Active,,Not Active,Not Active,Not Active,Not Active,,,Not Active
c1ccc2c(c1)cc1ccc3cccc4ccc2c1c34,Not Active,Not Active,,Not Active,Not Active,Not Active,Not Active,,,Not Active
CC=CC(=O)N(CC)c1ccccc1C,Not Active,Not Active,,Not Active,Not Active,Not Active,Not Active,Not Active,Not Active,Not Active
C=C1C(=O)O[C@@H]2C3O[C@]3(C)CC/C=C(\C)CC[C@@H]12 (stereo partly drawn),Not Active,Not Active,,Not Active,Not Active,Not Active,Not Active,Not Active,Not Active,Not Active
CC(/C=C1\SC(=S)N(CC(=O)O)C1=O)=C\c1ccccc1,Not Active,Not Active,,Not Active,Not Active,Not Active,Not Active,Not Active,Not Active,Not Active
CCCCCCCCCc1ccc(O)cc1 [4-NONYLPHENOL],Not Active,Not Active,,Not Active,Not Active,Not Active,Not Active,Not Active,Not Active,Not Active
COc1ccc2c(c1)c(CC(=O)OCC(=O)O)c(C)n2C(=O)c1ccc(Cl)cc1 [ACEMETACIN],Not Active,Not Active,,Not Active,Not Active,Not Active,Not Active,Not Active,Not Active,Not Active
CCCSc1ccc2nc(NC(=O)OC)[nH]c2c1 [ALBENDAZOLE],Not Active,Not Active,,Not Active,Not Active,Not Active,Not Active,Not Active,Not Active,Not Active
Cc1[nH]cnc1CN1CCc2c(c3ccccc3n2C)C1=O [ALOSETRON],Not Active,Not Active,,Not Active,Not Active,Not Active,Not Active,,,Not Active
O=c1cc(-c2ccccc2)oc2c1ccc1ccccc12 [ALPHA-NAPHTHOFLAVONE],Not Active,Not Active,,Not Active,Not Active,Not Active,Not Active,,,Not Active
NCC[C@H](O)C(=O)N[C@@H]1C[C@H](N)[C@@H](O[C@H]2O[C@H](CN)[C@@H](O)[C@H](O)[C@H]2O)[C@H](O)[C@H]1O[C@H]1O[C@H](CO)[C@@H](O)[C@H](N)[C@H]1O [AMIKACIN],Not Active,Not Active,,Not Active,Not Active,Not Active,Not Active,Not Active,Not Active,Not Active
CC1(C)S[C@@H]2[C@H](NC(=O)[C@H](N)c3ccc(O)cc3)C(=O)N2[C@H]1C(=O)O [AMOXICILLIN],Not Active,Not Active,,Not Active,Not Active,Not Active,Not Active,,,Not Active
CCOC(=O)OC(C)OC1=C(C(=O)Nc2ccccn2)N(C)S(=O)(=O)c2ccccc21 (stereo not drawn) [AMPIROXICAM],Not Active,Not Active,,Not Active,Not Active,Not Active,Not Active,Not Active,Not Active,Not Active
CCCCOC(=O)c1ccc(N)cc1 [BUTAMBEN],Not Active,Not Active,,Not Active,Not Active,Not Active,Not Active,,,Not Active
O=C(O)c1cn(C2CC2)c2cc(N3CCNCC3)c(F)cc2c1=O [CIPROFLOXACIN],Not Active,Not Active,,Not Active,Not Active,Not Active,Not Active,,,Not Active
O=C1OCCN1/N=C/c1ccc([N+](=O)[O-])o1 [FURAZOLIDONE],Not Active,Not Active,,Not Active,Not Active,Not Active,Not Active,,,Not Active
NCC(=O)O [GLYCINE],Not Active,Not Active,,Not Active,Not Active,Not Active,Not Active,,,Not Active
NS(=O)(=O)c1cc2c(cc1Cl)NCNS2(=O)=O [HYDROCHLOROTHIAZIDE],Not Active,Not Active,,Not Active,Not Active,Not Active,Not Active,,,Not Active
O=P1(NCCCl)OCCCN1CCCl (stereo not drawn) [IFOSFAMIDE],Not Active,Not Active,,Not Active,Not Active,Not Active,Not Active,,,Not Active
